From patent US6953812B2, “Glucagon antagonists/inverse agonists” (Novo Nordisk, Inc., priority 2000, dated 2005)
Where two headings read alike, the source gives them in different places.

How the values were obtained:
human glucagon receptor = target: T1, human glucagon receptor (Homo sapiens, UniProt P47871); assay: Glucagon Binding Assay (II); settings: membranes of BHK cells transfected with human glucagon receptor, 125I-glucagon, SPA; read-out: Glu Bd Assay (II) IC50
T1 construct: expressed in transfected cells; host or cells: BHK (baby hamster kidney) cells, membrane preparation
Method: Glucagon Binding Assay (II)
BHK (baby hamster kidney cell line) cells are transfected with the human glucagon receptor and a membrane preparation of the cells is prepared.
All steps in the membrane preparation are kept on ice or performed at 4° C. BHK cells are harvested and centrifuged. The pellet is resuspended in homogenisation buffer (25 mM HEPES, pH=7.4, 2.5 mM CaCl2, 1.0 mM MgCl2, 250 mg/L bacitracin, 0.1 mM Pefabloc), homogenised 2×10 sec using Polytron 10-35 homogenizer (Kinematica) and added the same amount of homogenisation buffer as used for resuspension. After centrifugation (15 min at 2000×g) the supernatant is transferred to cold centrifuge tubes and centrifuged for 45 min at 40.000×g. The pellet is resuspended in homogenisation buffer, homogenised 2×10 sec (Polytron) and additional homogenisation buffer is added. The suspension is centrifuged for 45 min at 40.000×g and the pellet is resuspended in resuspension buffer (25 mM HEPES, pH=7.4, 2.5 mM CaCl2, 1.0 mM MgCl2) and homogenised 2×10 sec. (Polytron). […] Stabilisation buffer (25 mM HEPES, pH=7.4, 2.5 mM CaCl2, 1.0 mM MgCl2, 1% bovine serum albumin, 500 mg/L bacitracin, 2.5 M sucrose) is added and the membrane preparation is stored at −80° C.
(§1) The glucagon binding assay is carried out in opti plates (Polystyrene Microplates, Packard). 50 μL assay buffer (25 mM HEPES, pH=7.5, 2.5 mM CaCl2, 1.0 mM MgCl2, 0.003% Tween-20, 0.005% bacitracin, 0.05% sodium azide) and 5 μL glucagon or test compound (in DMSO) are added to each well. […] Finally 50 μL WGA beads containing 1 mg beads are transferred to the well. The opti plates are incubated for 4 hours on a shaker and then settled for 8-48 hours. The opti plates are counted in a Topcounter. Non-specific binding is determined with 500 nM of glucagon.

human GIP receptor = target: T2, human GIP receptor (Homo sapiens, UniProt P48546); assay: GIP Binding Assay
T2 construct: expressed in transfected cells; host or cells: BHK (baby hamster kidney) cells, membrane preparation
T2 sequence (P48546 22-466): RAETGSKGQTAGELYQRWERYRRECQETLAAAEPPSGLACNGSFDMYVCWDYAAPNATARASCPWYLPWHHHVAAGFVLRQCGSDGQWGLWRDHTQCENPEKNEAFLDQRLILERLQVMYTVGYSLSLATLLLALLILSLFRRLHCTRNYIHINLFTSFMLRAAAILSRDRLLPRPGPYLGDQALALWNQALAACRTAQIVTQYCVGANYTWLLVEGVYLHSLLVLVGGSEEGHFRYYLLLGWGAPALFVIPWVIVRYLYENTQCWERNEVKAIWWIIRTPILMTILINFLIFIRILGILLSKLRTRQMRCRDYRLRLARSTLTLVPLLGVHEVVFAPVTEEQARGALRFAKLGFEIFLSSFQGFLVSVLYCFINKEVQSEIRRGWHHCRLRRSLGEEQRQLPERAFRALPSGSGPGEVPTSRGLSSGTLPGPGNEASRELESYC
Method: BHK (baby hamster kidney cell line) cells are transfected with the human GIP receptor and a membrane preparation of the cells is prepared.
All steps in the membrane preparation are kept on ice or performed at 4° C. BHK cells are harvested and centrifuged. The pellet is resuspended in homogenisation buffer (25 mM) HEPES, pH=7.4, 2.5 mM CaCl2, 1.0 mM MgCl2, 250 mg/L bacitracin, 0.1 mM Pefabloc), homogenised 2×10 sec using Polytron 10-35 homogenizer (Kinematica) and added the same amount of homogenisation buffer as used for resuspension. After centrifugation (15 min at 2000×g) the supernatant is transferred to cold centrifuge tubes and centrifuged for 45 min at 40.000×g. The pellet is resuspended in homogenisation buffer, homogenised 2×10 sec (Polytron) and additional homogenisation buffer is added. The suspension is centrifuged for 45 min at 40.000×g and the pellet is resuspended in resuspension buffer (25 mM HEPES, pH=7.4, 2.5 mM CaCl2, 1.0 mM MgCl2) and homogenised 2×10 sec. (Polytron). […] Stabilisation buffer (25 mM HEPES, pH=7.4, 2.5 mM CaCl2, 1.0 mM MgCl2, 1% bovine serum albumin, 500 mg/L bacitracin, 2.5 M sucrose) is added and the membrane preparation is stored at −80° C.
as §1, with “The GIP” for “The glucagon”, “μL GIP” for “μL glucagon”, “for 3.5” for “for 4”, “a Top-counter.” for “a Topcounter.”, “of GIP.” for “of glucagon.”

[1] = membranes of BHK cells transfected with human GIP receptor, 125I-GIP, SPA, read-out: GIP Bd Assay IC50

T1 sequence (P47871 26-477): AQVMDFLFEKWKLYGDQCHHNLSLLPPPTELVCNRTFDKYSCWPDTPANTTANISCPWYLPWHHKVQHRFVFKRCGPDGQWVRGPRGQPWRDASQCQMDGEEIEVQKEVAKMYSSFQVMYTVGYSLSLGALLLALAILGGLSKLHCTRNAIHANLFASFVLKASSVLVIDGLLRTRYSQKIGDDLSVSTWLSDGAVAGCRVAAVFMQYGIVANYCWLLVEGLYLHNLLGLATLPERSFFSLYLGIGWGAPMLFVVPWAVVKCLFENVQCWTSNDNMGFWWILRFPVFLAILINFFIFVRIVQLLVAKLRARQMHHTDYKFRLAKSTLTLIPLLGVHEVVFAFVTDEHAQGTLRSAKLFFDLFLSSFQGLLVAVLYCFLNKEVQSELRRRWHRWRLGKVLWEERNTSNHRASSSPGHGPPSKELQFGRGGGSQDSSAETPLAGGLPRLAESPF

IC50 (human glucagon receptor) [nM] | IC50 (human GIP receptor; [1]) [nM] | Structure (SMILES) | IC50 (human GIP receptor) [nM]
40 | 516 | O=C(NCC(F)C(=O)O)c1ccc(CN(C(=O)Nc2cc(Cl)cc(Cl)c2)c2ccc(C3=CCCCC3)cc2)cc1 (racemic) [Example 23, (RS)-3-{4-[1-(4-Cyclohex-1-enylphenyl)3-(3,5-dichlorophenyl)ureidomethyl]benzoylamino}-2-fluoropropionic acid] | –
18 | 653 | O=C(NC[C@@H](O)C(=O)O)c1ccc(CN(C(=O)Nc2cccc(Br)c2)c2ccc(C3CCCCC3)cc2)cc1 [Example 3, (R)-3-{4-[3-(3-Bromophenyl)-1-(4-cyclohexylphenyl)ureidomethyl]benzoylamino}-2-hydroxypropionic acid] | –
26 | 292 | N#Cc1cc(NC(=O)N(Cc2ccc(C(=O)NC[C@@H](O)C(=O)O)cc2)c2ccc(C3=CCCCC3)cc2)cc(C(F)(F)F)c1 [Example 7, (R)-3-{4-[3-(3-Cyano-5-trifluoromethylphenyl)-1-(4-cyclohex-1-enylphenyl)ureidomethyl]benzoylamino}-2-hydroxypropionic acid] | –
11 | 285 | O=C(NC[C@@H](O)C(=O)O)c1ccc(CN(C(=O)Nc2cc(Br)cc(C(F)(F)F)c2)c2ccc(C3=CCCCC3)cc2)cc1 [Example 9, (R)-3-{4-[3-(3-Bromo-5-trifluoromethylphenyl)-1-(4-cyclohex-1-enylphenyl)ureidomethyl]benzoylamino}-2-hydroxypropionic acid] | –
19 | 294 | COc1cc(NC(=O)N(Cc2ccc(C(=O)NC[C@@H](O)C(=O)O)cc2)c2ccc(C3=CCCCC3)cc2)cc(C(F)(F)F)c1 [Example 10, (R)-3-{4-[1-(4-Cyclohex-1-enylphenyl)-3-(3-methoxy-5-trifluoromethylphenyl)ureidomethyl]benzoylamino}-2-hydroxypropionic acid] | –
41 | 914 | O=C(NC[C@@H](O)C(=O)O)c1ccc(CN(C(=O)Nc2cccc(Br)c2)c2ccc(C3=CCCCC3)cc2)cc1 [Example 11, (R)-3-{4-[3-(3-Bromophenyl)-1-(4-cyclohex-1-enylphenyl)ureidomethyl]benzoylamino}-2-hydroxypropionic acid] | –
177 | > 1500 | O=C(NC[C@H](O)C(=O)O)c1ccc(CN(C(=O)Nc2cc(Cl)cc(Cl)c2)c2ccc(C3=CCCCC3)cc2)cc1 [Example 18, (S)-3-{4-[1-(4-Cyclohex-1-enylphenyl)-3-(3,5-dichlorophenyl)ureidomethyl]benzoylamino}-2-hydroxypropionic acid] | –

The next lines start with the compound.

Structure (SMILES) | IC50 (human glucagon receptor) [nM] | IC50 (human GIP receptor; [1]) [nM] | IC50 (human GIP receptor) [nM]
CC(NC(=O)N(Cc1ccc(C(=O)NC[C@@H](O)C(=O)O)cc1)c1ccc(C2CCCCC2)cc1)c1ccc(Br)cc1 (mixture of isomers) [Example 54, 3-{4-[3-[1(RS)-(4-Bromophenyl)ethyl]-1-(4-cyclohexylphenyl)ureidomethyl]benzoylamino}-2(R)-hydroxypropionic acid] | 390 | > 3000 | –
CC(C)(C)c1ccc(N(Cc2ccc(C(=O)NCC(O)C(=O)O)cc2)C(=O)Nc2ccc(OC(F)(F)F)cc2)cc1 (racemic) [Example 16, (RS)-3-{4-[1-(4-tert-Butylphenyl)-3-(4-trifluoromethoxyphenyl)ureidomethyl]benzoylamino}-2-hydroxypropionic acid] | 61 | 205 | –
O=C(NCC(O)C(=O)O)c1ccc(CN(C(=O)Nc2cc(Cl)cc(Cl)c2)c2ccc(C3=CCCCC3)cc2)cc1 (racemic) [Example 17, (RS)-3-{4-[1-(4-Cyclohex-1-enylphenyl)-3-(3,5-dichlorophenyl)ureidomethyl]benzoylamino}-2-hydroxypropionic acid] | 22 | – | 448
COc1cc(NC(=O)N(Cc2ccc(C(=O)NC[C@@H](O)C(=O)O)cc2)c2ccc(C3CCCCC3)cc2)cc(C(F)(F)F)c1 [Example 1, (R)-3-{4-[1-(4-Cyclohexylphenyl)-3-(3methoxy-5-trifluoromethylphenyl)ureidomethyl]benzoylamino}-2-hydroxypropionic acid] | 29 | 701 | –
O=C(NC[C@@H](O)C(=O)O)c1ccc(CN(C(=O)Nc2cc(C(F)(F)F)cc(C(F)(F)F)c2)c2ccc(C3CCCCC3)cc2)cc1 [Example 2, (R)-3-{4-[3-(3,5-Bis(trifluoromethyl)phenyl)-1-(4-cyclohexylphenyl)ureidomethyl]benzoylamino}-2-hydroxypropionic acid] | 12 | 269 | –
O=C(NC[C@@H](O)C(=O)O)c1ccc(CN(C(=O)Nc2ccc(OC(F)(F)F)cc2)c2ccc(C3CCCCC3)cc2)cc1 [Example 4, (R)-3-{4-[1-(4-Cyclohexylphenyl)-3-(4-trifluoromethoxyphenyl)ureidomethyl]benzoylamino}-2-hydroxypropionic acid] | 23 | 124 | –
O=C(NC[C@@H](O)C(=O)O)c1ccc(CN(C(=O)Nc2cccc(C(F)(F)F)c2)c2ccc(C3CCCCC3)cc2)cc1 [Example 5, (R)-3-{4-[1-(4-Cyclohexylphenyl)-3-(3-trifluoromethylphenyl)ureidomethyl]benzoylamino}-2-hydroxypropionic acid] | 26 | 519 | –
O=C(NC[C@@H](O)C(=O)O)c1ccc(CN(C(=O)Nc2cc(F)cc(C(F)(F)F)c2)c2ccc(C3CCCCC3)cc2)cc1 [Example 6, (R)-3-{4-[1-(4-Cyclohexylphenyl)-3-(3-fluoro-5-trifluoromethylphenyl)ureidomethyl]benzoylamino}-2-hydroxypropionic acid] | 10 | 294 | –
N#Cc1cc(NC(=O)N(Cc2ccc(C(=O)NC[C@@H](O)C(=O)O)cc2)c2ccc(C3CCCCC3)cc2)cc(C(F)(F)F)c1 [Example 8, (R)-3-{4-[3-(3-Cyano-5-trifluoromethylphenyl)-1-(4-cyclohexylphenyl)ureidomethyl]benzoylamino}-2-hydroxypropionic acid] | 14 | 316 | –
O=C(NC[C@@H](O)C(=O)O)c1ccc(CN(C(=O)Nc2cc(Br)cc(C(F)(F)F)c2)c2ccc(C3CCCCC3)cc2)cc1 [Example 12, (R)-3-{4-[3-(3-Bromo-5-trifluoromethylphenyl)-1-(4-cyclohexylphenyl)ureidomethyl]benzoylamino}-2-hydroxypropionic acid] | 10 | 204 | –
Cc1cc(NC(=O)N(Cc2ccc(C(=O)NC[C@@H](O)C(=O)O)cc2)[C@H]2CC[C@H](C(C)(C)C)CC2)cc(C(F)(F)F)c1 [Example 15, Trans-(R)-3-{4-[3-(3-methyl-5-trifluoromethylphenyl)-1-(4-tert-butylcyclohexyl)ureidomethyl]benzoylamino}-2-hydroxypropionic acid] | 35 | 395 | –
